# Reference: US20110171675A1, “FRET-BASED MEMBRANE-TYPE 1 MATRIX METALLOPROTEINASE BIOSENSOR AND METHODS FOR USING THE SAME” (priority 2008, published 2011)
# Legend:
# [1] = tested on: Rac; assay: PDGF-induced Rac activity in MEFs (Rac FRET biosensor); format: cell-based, mouse
# Description: The improved ECFP/YPet biosensor was further used in the analysis of molecular hierarchy in cell migration. […] However, the spatiotemporal interrelationship between Src and Rac activation has not been shown. Thus, the improved Rac biosensor was employed to visualize the spatiotemporal Rac activity during cell migration in response to platelet-derived growth factor (PDGF). The role of Src in regulating this Rac activation was also investigated. […] PDGF induced a strong Rac activation at membrane ruffles and a moderate overall activation of Rac in the whole cell. […] To further characterize the spatiotemporal Rac activity, MEF cells transfected with the Rac biosensor were seeded atop fibronectin-coated stripes (10 μm width) to constrain the cell adhesion and control the direction of cell migration. […] Again, the inhibition of Src by PP1 or Src/Yes/Fyn triple-knockout blocked the polarized Rac activity before and after PDGF stimulation.
# [2] = tested on: Src; assay: VEGF-induced membrane Src activation in live endothelial cells (FRET); format: cell-based; settings: YPet-based membrane-targeted Src biosensor
# Description: Both VEGF and Src are critical for angiogenesis. […] However, VEGF-induced Src activation was difficult to detect using an ECFP/Citrine-based biosensor. […] Thus, the YPet-based Src biosensor was targeted to the plasma membrane by fusing a prenylation substrate sequence (Lys-Lys-Lys-Lys-Lys-Lys-Ser-Lys-Thr-Lys-Cys-Val-Ile-Met; SEQ ID NO:9) from KRas to visualize the VEGF-induced membrane Src activation in live endothelial cells.
# [3] = tested on: Src; assay: PDGF-induced Src activation in MEFs (Src FRET biosensor); format: cell-based, mouse
# Description: Unexpectedly, PDGF-induced Src activation was global without a clear spatial pattern at subcellular levels, even when MEFs were constrained on fibronectin stripes to have directional migration.
compound,measurement,setting,value
Cc1ccc(-c2nn(C(C)(C)C)c3ncnc(N)c23)cc1 [PP1],Polarized Rac activity before and after PDGF stimulation,[1]; MEFs on fibronectin-coated stripes (10 μm width),blocked
same,Basal and PDGF-induced Rac activity,"[1]; MEFs pretreated with inhibitor, cultured on fibronectin",significantly inhibited
same,Effect of inhibitor on VEGF-induced FRET response,[2],abolished
C=C1[C@@H](C)[C@H]2[C@H](Cc3ccccc3)NC(=O)[C@]23[C@H](OC(C)=O)/C=C/[C@@](C)(O)C(=O)[C@@H](C)C/C=C/[C@H]3[C@@H]1O [CytoD],PDGF-induced Src activation,[3]; MEF cells transfected with RacV12,inhibited
same,PDGF-induced Src activation,"[3]; MEFs, disruption of actin filaments",blocked
CC(C)c1cc(/C=C(\C#N)C(=O)NCCCc2ccccc2)cc(C(C)C)c1O [SU1498],Effect of inhibitor on VEGF-induced FRET response,[2],abolished
